From the supplement of paper PMC6045584
± gives the standard deviation of the averaged measurements.

How the values were obtained:
CABOZANTINIB [1] = compound: T1, COc1cc2nccc(Oc3ccc(NC(=O)C4(C(=O)Nc5ccc(F)cc5)CC4)cc3)c2cc1OC [CABOZANTINIB]; assay: surviving fraction relative to DMSO-only wells; higher = less growth inhibition; conditions: exposure time: 5 days
In short: (§1)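 Viability was determined by CellTiter-Glo luminescence, expressed as surviving fraction normalised to the median of DMSO-only wells. The cells were log-phase tumour cell lines seeded at 250–500 per well in 384-well plates and, after 24 hours, exposed continuously for five days to inhibitors at 0.5, 1, 5, 10, 50, 100, 500 and 1000 nM. Three screens per line were run, keeping only lines with replicate Pearson r >0.7 and median Z' >0.3.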

VORINOSTAT [2] = compound: T2, O=C(CCCCCCC(=O)Nc1ccccc1)NO [VORINOSTAT]; assay: as above; conditions: exposure time: 5 days
In short: as §1

BMN-673 = compound: Cn1ncnc1[C@H]1c2n[nH]c(=O)c3cc(F)cc(c23)N[C@@H]1c1ccc(F)cc1 [BMN-673]; assay: area under dose-response curve of surviving fraction (unscaled, Aref=0) (surviving fraction x log10(nM)); higher = more resistant; conditions: exposure time: 5 days; dose range 0.5-1000 nM
In short: (§2)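 Tumour cell lines in 384-well plates were exposed to eight inhibitor concentrations, from 0.5 to 1000 nM, for five days, and viability was read by CellTiter-Glo luminescence in three screens per line. Signals were normalised to DMSO-only wells, and 3-parameter logistic regression in the drc R package fitted dose-response survival curves to the surviving fractions. Area under the curve is given as the unscaled activity area. That area is taken over log10 dose with Aref = 0.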

CABOZANTINIB [3] = compound: T1, CABOZANTINIB; assay: as above; conditions: exposure time: 5 days; dose range 0.5-1000 nM
In short: as §2

VORINOSTAT [4] = compound: T2, VORINOSTAT; assay: as above; conditions: exposure time: 5 days; dose range 0.5-1000 nM
In short: as §2

[5] = compound: C[C@@H]1CN(CC(=O)Nc2ccc3c(c2)Cc2cccc(-c4cc(=O)cc(N5CCOCC5)o4)c2S3)C[C@H](C)O1; assay: as above; conditions: exposure time: 5 days; dose range 0.5-1000 nM
In short: as §2

T47D BREAST was tested, and the surviving fraction (CABOZANTINIB [1]; 0.5 nM) was 0.969 ± 0.016, the surviving fraction (CABOZANTINIB [1]; 1 nM) was 0.988 ± 0.028 and the surviving fraction (CABOZANTINIB [1]; 5 nM) was 1.02 ± 0.038. For the same test system, the surviving fraction (CABOZANTINIB [1]; 10 nM) was 1.04 ± 0.075, the surviving fraction (CABOZANTINIB [1]; 50 nM) was 1.059 ± 0.0083 and the surviving fraction (CABOZANTINIB [1]; 100 nM) was 1.07 ± 0.021. The surviving fraction (CABOZANTINIB [1]; 500 nM) was 1.07 ± 0.034, the surviving fraction (CABOZANTINIB [1]; 1000 nM) was 1.03 ± 0.022 and the surviving fraction (VORINOSTAT [2]; 0.5 nM) was 0.967 ± 0.026. The surviving fraction (VORINOSTAT [2]; 1 nM) was 1.01 ± 0.02, the surviving fraction (VORINOSTAT [2]; 5 nM) was 1.02 ± 0.042 and the surviving fraction (VORINOSTAT [2]; 10 nM) was 1.013 ± 0.006. It also gave a surviving fraction (VORINOSTAT [2]; 50 nM) of 1.08 ± 0.057, a surviving fraction (VORINOSTAT [2]; 100 nM) of 1.05 ± 0.043 and a surviving fraction (VORINOSTAT [2]; 500 nM) of 0.785 ± 0.02. For the same test system, the surviving fraction (VORINOSTAT [2]; 1000 nM) was 0.449 ± 0.028, the “area under dose-response curve” value (BMN-673) was 2.5 and the “area under dose-response curve” value (CABOZANTINIB [3]) was 3.4. The “area under dose-response curve” value (VORINOSTAT [4]) was 3.15 and the “area under dose-response curve” value [5] was 3.37.

U2OS BONE showed a surviving fraction (CABOZANTINIB [1]; 0.5 nM) of 1.015 ± 0.0081, a surviving fraction (CABOZANTINIB [1]; 1 nM) of 1.02 ± 0.028 and a surviving fraction (CABOZANTINIB [1]; 5 nM) of 1.03 ± 0.022. For the same test system, the surviving fraction (CABOZANTINIB [1]; 10 nM) was 1.003 ± 0.0091, the surviving fraction (CABOZANTINIB [1]; 50 nM) was 1.03 ± 0.046 and the surviving fraction (CABOZANTINIB [1]; 100 nM) was 1.02 ± 0.015. The surviving fraction (CABOZANTINIB [1]; 500 nM) was 0.932 ± 0.018, the surviving fraction (CABOZANTINIB [1]; 1000 nM) was 0.914 ± 0.02 and the surviving fraction (VORINOSTAT [2]; 0.5 nM) was 0.934 ± 0.013. The surviving fraction (VORINOSTAT [2]; 1 nM) was 1.03 ± 0.015, the surviving fraction (VORINOSTAT [2]; 5 nM) was 0.995 ± 0.026 and the surviving fraction (VORINOSTAT [2]; 10 nM) was 1.01 ± 0.02. For the same test system, the surviving fraction (VORINOSTAT [2]; 50 nM) was 1.01 ± 0.016, the surviving fraction (VORINOSTAT [2]; 100 nM) was 1.04 ± 0.04 and the surviving fraction (VORINOSTAT [2]; 500 nM) was 0.909 ± 0.047. For the same test system, the surviving fraction (VORINOSTAT [2]; 1000 nM) was 0.751 ± 0.051, the “area under dose-response curve” value (BMN-673) was 2.8 and the “area under dose-response curve” value (CABOZANTINIB [3]) was 3.26. For the same test system, the “area under dose-response curve” value (VORINOSTAT [4]) was 3.23 and the “area under dose-response curve” value [5] was 3.54.

In the case of VCAP PROSTATE, the surviving fraction (CABOZANTINIB [1]; 0.5 nM) is reported as 0.921 ± 0.16, the surviving fraction (CABOZANTINIB [1]; 1 nM) is reported as 1.01 ± 0.046 and the surviving fraction (CABOZANTINIB [1]; 5 nM) is reported as 1.05 ± 0.037. It also gave a surviving fraction (CABOZANTINIB [1]; 10 nM) of 0.996 ± 0.07, a surviving fraction (CABOZANTINIB [1]; 50 nM) of 1.06 ± 0.043 and a surviving fraction (CABOZANTINIB [1]; 100 nM) of 1.026 ± 0.004. The surviving fraction (CABOZANTINIB [1]; 500 nM) was 0.992 ± 0.065, the surviving fraction (CABOZANTINIB [1]; 1000 nM) was 0.871 ± 0.056 and the surviving fraction (VORINOSTAT [2]; 0.5 nM) was 1.09 ± 0.082. It also gave a surviving fraction (VORINOSTAT [2]; 1 nM) of 1.12 ± 0.054, a surviving fraction (VORINOSTAT [2]; 5 nM) of 1.15 ± 0.015 and a surviving fraction (VORINOSTAT [2]; 10 nM) of 1.17 ± 0.11. The surviving fraction (VORINOSTAT [2]; 50 nM) was 1.16 ± 0.11, the surviving fraction (VORINOSTAT [2]; 100 nM) was 0.994 ± 0.022 and the surviving fraction (VORINOSTAT [2]; 500 nM) was 0.449 ± 0.017. For the same test system, the surviving fraction (VORINOSTAT [2]; 1000 nM) was 0.261 ± 0.04, the “area under dose-response curve” value (BMN-673) was 2.63 and the “area under dose-response curve” value (CABOZANTINIB [3]) was 3.28. The “area under dose-response curve” value (VORINOSTAT [4]) was 2.98 and the “area under dose-response curve” value [5] was 3.6.

For VP229 BREAST, the surviving fraction (CABOZANTINIB [1]; 0.5 nM) was 1.08 ± 0.1, the surviving fraction (CABOZANTINIB [1]; 1 nM) was 1.04 ± 0.14 and the surviving fraction (CABOZANTINIB [1]; 5 nM) was 1.04 ± 0.15. It also gave a surviving fraction (CABOZANTINIB [1]; 10 nM) of 0.952 ± 0.18, a surviving fraction (CABOZANTINIB [1]; 50 nM) of 1.15 ± 0.2 and a surviving fraction (CABOZANTINIB [1]; 100 nM) of 0.998 ± 0.12. The surviving fraction (CABOZANTINIB [1]; 500 nM) was 1.09 ± 0.088, the surviving fraction (CABOZANTINIB [1]; 1000 nM) was 0.966 ± 0.061 and the surviving fraction (VORINOSTAT [2]; 0.5 nM) was 0.931 ± 0.099. It also gave a surviving fraction (VORINOSTAT [2]; 1 nM) of 1.04 ± 0.054, a surviving fraction (VORINOSTAT [2]; 5 nM) of 1.02 ± 0.11 and a surviving fraction (VORINOSTAT [2]; 10 nM) of 0.924 ± 0.033. It also gave a surviving fraction (VORINOSTAT [2]; 50 nM) of 1.1 ± 0.086, a surviving fraction (VORINOSTAT [2]; 100 nM) of 1.04 ± 0.022 and a surviving fraction (VORINOSTAT [2]; 500 nM) of 0.6 ± 0.11. The surviving fraction (VORINOSTAT [2]; 1000 nM) was 0.352 ± 0.058, the “area under dose-response curve” value (BMN-673) was 3.22 and the “area under dose-response curve” value (CABOZANTINIB [3]) was 3.43. The “area under dose-response curve” value (VORINOSTAT [4]) was 3.08 and the “area under dose-response curve” value [5] was 3.29.
